In ChEMBL document CHEMBL1201862, “PubChem BioAssay data set” (2004):
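Each compound was tested at five concentrations against cells in 96-well plates for 48 hours. Abbreviation: GI50, concentration required for 50% inhibition of growth.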 Activity calls are given as the source filed them. Cut-off read from the data, not from the text of the source: active = GI50 up to about 1.1 µM and inactive = higher.

What was measured:
Assay in all cases: DTP human tumour cell line panel, 48 h
786-0 = system: 786-0
A549 = system: A549
ACHN = system: ACHN
BT-549 = system: BT-549
CAKI-1 = system: CAKI-1
CCRF-CEM = system: CCRF-CEM
COLO 205 = system: COLO 205
DU-145 = system: DU-145
EKVX = system: EKVX
HCC 2998 = system: HCC 2998
HCT-116 = system: HCT-116
HCT-15 = system: HCT-15
HL-60 = system: HL-60
HOP-62 = system: HOP-62
HOP-92 = system: HOP-92
HT-29 = system: HT-29
Hs-578T = system: Hs-578T
IGROV-1 = system: IGROV-1
K562 = system: K562
KM12 = system: KM12
LOX IMVI = system: LOX IMVI
M14 = system: M14
MCF7 = system: MCF7
MDA-MB-231 = system: MDA-MB-231
MDA-MB-435 = system: MDA-MB-435
MDA-N = system: MDA-N
MOLT-4 = system: MOLT-4
Malme-3M = system: Malme-3M
NCI-H226 = system: NCI-H226
NCI-H23 = system: NCI-H23
NCI-H460 = system: NCI-H460
NCI-H522 = system: NCI-H522
NCI/ADR-RES = system: NCI/ADR-RES
OVCAR-3 = system: OVCAR-3
OVCAR-4 = system: OVCAR-4
OVCAR-5 = system: OVCAR-5
OVCAR-8 = system: OVCAR-8
PC-3 = system: PC-3
RPMI-8226 = system: RPMI-8226
RXF 393 = system: RXF 393
SF-268 = system: SF-268
SF-295 = system: SF-295
SF-539 = system: SF-539
SK-MEL-28 = system: SK-MEL-28
SK-MEL-2 = system: SK-MEL-2
SK-MEL-5 = system: SK-MEL-5
SK-OV-3 = system: SK-OV-3
SNB-19 = system: SNB-19
SNB-75 = system: SNB-75
SR = system: SR
SW-620 = system: SW-620
TK-10 = system: TK-10
U-251 = system: U-251
UACC-257 = system: UACC-257
UACC-62 = system: UACC-62
UO-31 = system: UO-31
A498 = system: A498
SN12C = system: SN12C
T47D = system: T47D

SMILES: CCOC(=O)C(Cc1ccccc1)(Cc1ccc(O)cn1)NC(=O)c1ccccc1 (configuration not stated)
- GI50 (786-0): 24.9 µM (inactive)
- GI50 (A549): 27.2 µM (inactive)
- GI50 (ACHN): 35.8 µM (inactive)
- GI50 (BT-549): 30.1 µM (inactive)
- GI50 (CAKI-1): 26.2 µM (inactive)
- GI50 (CCRF-CEM): 7.03 µM (inactive)
- GI50 (COLO 205): 24.4 µM (inactive)
- GI50 (DU-145): 27.5 µM (inactive)
- GI50 (EKVX): 25.9 µM (inactive)
- GI50 (HCC 2998): 25.1 µM (inactive)
- GI50 (HCT-116): 24.7 µM (inactive)
- GI50 (HCT-15): 19.7 µM
- GI50 (HL-60): 21.7 µM (inactive)
- GI50 (HOP-62): 32.2 µM (inactive)
- GI50 (HOP-92): 18.5 µM (inactive)
- GI50 (HT-29): 26.5 µM (inactive)
- GI50 (Hs-578T): 16.3 µM (inactive)
- GI50 (IGROV-1): 22.6 µM (inactive)
- GI50 (K562): 29.7 µM (inactive)
- GI50 (KM12): 17.5 µM (inactive)
- GI50 (LOX IMVI): 19.8 µM (inactive)
- GI50 (M14): 17.9 µM (inactive)
- GI50 (MCF7): 22.3 µM (inactive)
- GI50 (MDA-MB-231): 28.1 µM (inactive)
- GI50 (MDA-MB-435): 9.51 µM (inactive)
- GI50 (MDA-N): 6.27 µM (inactive)
- GI50 (MOLT-4): 27.9 µM (inactive)
- GI50 (Malme-3M): 14.2 µM (inactive)
- GI50 (NCI-H226): 29.2 µM (inactive)
- GI50 (NCI-H23): 32.8 µM (inactive)
- GI50 (NCI-H460): 27.4 µM (inactive)
- GI50 (NCI-H522): 15.6 µM (inactive)
- GI50 (NCI/ADR-RES): 26.4 µM (inactive)
- GI50 (OVCAR-3): 19.2 µM (inactive)
- GI50 (OVCAR-4): 27.4 µM (inactive)
- GI50 (OVCAR-5): 27.3 µM (inactive)
- GI50 (OVCAR-8): 31.6 µM (inactive)
- GI50 (PC-3): 18.5 µM (inactive)
- GI50 (RPMI-8226): 25.9 µM (inactive)
- GI50 (RXF 393): 23.8 µM (inactive)
- GI50 (SF-268): 17.7 µM (inactive)
- GI50 (SF-295): 27.3 µM (inactive)
- GI50 (SF-539): 23.8 µM (inactive)
- GI50 (SK-MEL-28): 36.5 µM (inactive)
- GI50 (SK-MEL-2): 20.2 µM (inactive)
- GI50 (SK-MEL-5): 16.5 µM (inactive)
- GI50 (SK-OV-3): 30.6 µM (inactive)
- GI50 (SNB-19): 32 µM (inactive)
- GI50 (SNB-75): 21.6 µM (inactive)
- GI50 (SR): 6.56 µM (inactive)
- GI50 (SW-620): 29.6 µM (inactive)
- GI50 (TK-10): 32.1 µM (inactive)
- GI50 (U-251): 21.7 µM (inactive)
- GI50 (UACC-257): 23.5 µM (inactive)
- GI50 (UACC-62): 16.7 µM (inactive)
- GI50 (UO-31): 29.6 µM (inactive)

SMILES: CCOC(=O)C(O)(NC(=O)Nc1ccc(F)cc1)C(F)(F)F (configuration not stated)
- GI50 (786-0): > 100 µM (inactive)
- GI50 (A498): > 100 µM (inactive)
- GI50 (A549): > 100 µM (inactive)
- GI50 (ACHN): > 100 µM (inactive)
- GI50 (BT-549): > 100 µM (inactive)
- GI50 (CAKI-1): 38.8 µM (inactive)
- GI50 (CCRF-CEM): > 100 µM (inactive)
- GI50 (COLO 205): > 100 µM (inactive)
- GI50 (EKVX): > 100 µM (inactive)
- GI50 (HCC 2998): > 100 µM (inactive)
- GI50 (HCT-116): > 100 µM (inactive)
- GI50 (HCT-15): > 100 µM
- GI50 (HL-60): > 100 µM (inactive)
- GI50 (HT-29): > 100 µM (inactive)
- GI50 (Hs-578T): > 100 µM (inactive)
- GI50 (IGROV-1): > 100 µM (inactive)
- GI50 (K562): > 100 µM (inactive)
- GI50 (LOX IMVI): > 100 µM (inactive)
- GI50 (M14): > 100 µM (inactive)
- GI50 (MDA-MB-435): > 100 µM (inactive)
- GI50 (MDA-N): > 100 µM (inactive)
- GI50 (MOLT-4): > 100 µM (inactive)
- GI50 (NCI-H23): > 100 µM (inactive)
- GI50 (NCI/ADR-RES): > 100 µM (inactive)
- GI50 (OVCAR-5): > 100 µM (inactive)
- GI50 (OVCAR-8): > 100 µM (inactive)
- GI50 (PC-3): > 100 µM (inactive)
- GI50 (RPMI-8226): > 100 µM (inactive)
- GI50 (RXF 393): > 100 µM (inactive)
- GI50 (SF-268): > 100 µM (inactive)
- GI50 (SF-539): > 100 µM (inactive)
- GI50 (SK-MEL-28): > 100 µM (inactive)
- GI50 (SK-MEL-2): > 100 µM (inactive)
- GI50 (SK-MEL-5): > 100 µM (inactive)
- GI50 (SK-OV-3): > 100 µM (inactive)
- GI50 (SN12C): > 100 µM (inactive)
- GI50 (SNB-19): > 100 µM (inactive)
- GI50 (SNB-75): > 100 µM (inactive)
- GI50 (SR): > 100 µM (inactive)
- GI50 (SW-620): > 100 µM (inactive)
- GI50 (T47D): > 100 µM (inactive)
- GI50 (TK-10): > 100 µM (inactive)
- GI50 (U-251): > 100 µM (inactive)
- GI50 (UACC-257): > 100 µM (inactive)
- GI50 (UO-31): > 100 µM (inactive)

SMILES: Cc1ccc(C2(N3CCOCC3)OC(C)(C)c3cccc4cccc2c34)cc1 (configuration not stated)
- GI50 (786-0): 17.3 µM (inactive)
- GI50 (A498): 17.7 µM (inactive)
- GI50 (A549): 12.9 µM (inactive)
- GI50 (ACHN): 16.3 µM (inactive)
- GI50 (BT-549): 17.3 µM (inactive)
- GI50 (CAKI-1): 18.2 µM (inactive)
- GI50 (CCRF-CEM): 22.6 µM (inactive)
- GI50 (COLO 205): 15.9 µM (inactive)
- GI50 (DU-145): 18 µM (inactive)
- GI50 (EKVX): 13 µM (inactive)
- GI50 (HCT-116): 17.1 µM (inactive)
- GI50 (HCT-15): 17 µM
- GI50 (HL-60): 34.9 µM (inactive)
- GI50 (HOP-62): 15.7 µM (inactive)
- GI50 (HOP-92): 11.9 µM (inactive)
- GI50 (HT-29): 15.5 µM (inactive)
- GI50 (Hs-578T): 20.9 µM (inactive)
- GI50 (IGROV-1): 17.9 µM (inactive)
- GI50 (K562): 30.2 µM (inactive)
- GI50 (KM12): 21.1 µM (inactive)
- GI50 (LOX IMVI): 16.5 µM (inactive)
- GI50 (M14): 16.8 µM (inactive)
- GI50 (MCF7): 16 µM (inactive)
- GI50 (MDA-MB-435): 16.9 µM (inactive)
- GI50 (MDA-N): 17.9 µM (inactive)
- GI50 (MOLT-4): 41.5 µM (inactive)
- GI50 (Malme-3M): 16.8 µM (inactive)
- GI50 (NCI-H226): 17.1 µM (inactive)
- GI50 (NCI-H23): 17.7 µM (inactive)
- GI50 (NCI-H460): 14.5 µM (inactive)
- GI50 (NCI-H522): 15.8 µM (inactive)
- GI50 (NCI/ADR-RES): 15.7 µM (inactive)
- GI50 (OVCAR-3): 16 µM (inactive)
- GI50 (OVCAR-4): 15.9 µM (inactive)
- GI50 (OVCAR-5): 15.8 µM (inactive)
- GI50 (OVCAR-8): 16.9 µM (inactive)
- GI50 (PC-3): 16.5 µM (inactive)
- GI50 (RPMI-8226): 16.2 µM (inactive)
- GI50 (RXF 393): 15.3 µM (inactive)
- GI50 (SF-268): 14.4 µM (inactive)
- GI50 (SF-295): 16.9 µM (inactive)
- GI50 (SF-539): 17.9 µM (inactive)
- GI50 (SK-MEL-2): 15.6 µM (inactive)
- GI50 (SK-MEL-5): 18.6 µM (inactive)
- GI50 (SK-OV-3): 16.7 µM (inactive)
- GI50 (SN12C): 16.9 µM (inactive)
- GI50 (SNB-19): 17.6 µM (inactive)
- GI50 (SNB-75): 15.4 µM (inactive)
- GI50 (SR): 35.1 µM (inactive)
- GI50 (SW-620): 18.2 µM (inactive)
- GI50 (T47D): 21.7 µM (inactive)
- GI50 (TK-10): 17.3 µM (inactive)
- GI50 (U-251): 16.5 µM (inactive)
- GI50 (UACC-257): 18 µM (inactive)
- GI50 (UACC-62): 13.6 µM (inactive)
- GI50 (UO-31): 16.9 µM (inactive)
